{"source": "patent US11229207B2", "about": "“Topical avermectin formulations and methods for elimination and prophylaxis of susceptible and treatment resistant strains of head lice” (priority 2006, dated 2022)", "key": {"head lice [1]": {"system": "head lice", "conditions": "cited from earlier work"}, "SF-HL strain": {"system": "SF-HL strain", "conditions": "Moon et al. 2003; cited from earlier work"}, "head lice [2]": {"system": "head lice", "conditions": "cited from earlier work", "remark": "listed apart in the source"}, "[3]": {"system": "SF-HL strain of permethrin-resistant human head lice", "assay": "Hair tuft mortality bioassay, permethrin-resistant SF-HL lice", "type": "in vivo, Pediculus humanus capitis", "set-up": "LT50 (lethal time to 50% mortality): unit not given beside the values", "conditions": "10 minute exposure", "excerpt": "The SF-HL strain of permethrin-resistant human head lice (Pediculus humanus capitis, Phthiraptera:Pediculidae) is collected from infested children in Plantation and Homestead, Fla. and is maintained on an in vitro feeding system at the University of Massachusetts at Amherst, Mass. as described by Yoon et al. (2006). Lice are maintained without a human host on the in vitro rearing system from about 24 to about 36 generations. Permethrin-resistant SF-HL are selected periodically using 1% permethrin-treated filter papers (Yoon et al. 2006). Filter papers (35 mm diameter, Whatman No. 1) are immersed into 1% permethrin dissolved in acetone (w/v) for 10 seconds and is air dried in a dark fumehood from about 20 to about 30 minutes. Mixed developmental stages (first instars to adult) are placed on the treated filter paper and exposed for about 5 hours. Surviving lice are transferred back into the feeding system. The SF-HL strain are susceptible to Ovide® (0.5% malathion), but resistant to Nix® (1% permethim) and cross-resistant to DDT treatments. (Moon et al. 2003).\nMortality bioassays are performed to compare lethal time to 50% mortality values (LT50) between the ivermectin formulations, Nix®, and Ovide®. Experimental lice are newly hatched first instars (less than 24 hours old). The lice are randomly taken from the in vitro rearing system, where the lice take an overnight blood meal. Lice (about 30 lice/treatment) are placed on an individual hair tuft (about 300 strands, about 4 cm in length) using sterile forceps, and the treatment is gently rubbed into the hair until saturation occurs.\nAfter a 10 minute exposure period, the hair tuft with lice are washed sequentially in three separate water baths, containing about 10 ml of ddH2O for about 5 seconds each. The washed hair tuft with lice is blotted onto stacks of filter paper and air dried for about 5 minutes. Any lice dislodged during treatment or washing are placed back onto the treated hair tuft. After drying, the treated hair tuft with lice is examined under a dissecting microscope and the number of dead lice is recorded.\nA louse is considered dead if it can not right itself when inverted and when its legs have ceased all movements when probed. Treated hair tufts with lice are then placed onto the feeding membrane in the in vitro rearing system and are maintained at 31° C. and 75% humidity. The numbers of dead lice are reassessed at 10 minute intervals until a greater than 90% mortality is achieved. The timing for mortality begins immediately following the 10 minute exposure period. Because of this, mortality is not assessed during the washing and drying intervals (about 5 minutes). Log time versus logit percent mortality regression lines are generated to determine LT50 and LT95 values and maximum log-likelihood ratio tests are performed to test the equality (slope and intercept) of the regression lines (p<0.05, Polo PC, LeOra Software, 1987).\nTo determine whether ivermectin in formulation performs better than ivermectin alone, blood-fed lice are placed onto 0.5% (w/v) ivermectin formulation-treated hair tufts as described above. Blood-fed lice are also placed onto hair tufts that are treated with 0.5% ivermectin in acetone (acetone is allowed to volatilize in a fumehood for about 1 hour prior to transferring lice to the treated hair tuft), washed, and transferred to the in vitro rearing system as described above."}, "[4]": {"conditions": "SF-HL lice, Ovide values are estimated times"}}, "note": "“And” between values parts separate entries of the source, which are not always exact repeats. Equal values may be shown once. Read-outs that look alike come from different tables or passages of the source."}
{"molecule": "22,23-dihydroavermectin B1a and B1b [ivermectin]", "values": [{"measurement": "effect against head lice in humans", "setting": "head lice [1]; single oral 200 μg/kg dose, n=26 (Glaziou et al. 1994)", "result": "effective"}, {"measurement": "results against head lice infestation", "setting": "head lice [1]; single oral dose of 100-200 μg/kg (Dunne et al. 1991)", "result": "Positive, but not absolute, results"}]}
{"molecule": "Clc1ccc(C(c2ccc(Cl)cc2)C(Cl)(Cl)Cl)cc1", "note": "[DDT]", "values": [{"measurement": "status of the SF-HL strain towards the treatment", "setting": "SF-HL strain", "result": "cross-resistant"}]}
{"molecule": "Cl[C@H]1[C@H](Cl)[C@@H](Cl)[C@@H](Cl)[C@H](Cl)[C@H]1Cl", "note": "[lindane]", "values": [{"measurement": "efficacy for treating head lice", "setting": "head lice [2]; reports in other parts of the world", "result": "61% and 93%"}, {"measurement": "efficacy for treating head lice", "setting": "head lice [2]; reports in the U.S.", "result": 17, "unit": "%"}]}
{"molecule": "ivermectin [0.5% (non-formulated)]", "values": [{"measurement": "LT50 (lethal time to 50% mortality)", "setting": "[3]; [4]", "result": 221.8}, {"measurement": "LT95", "setting": "[3]; [4]", "result": 419.4}, {"measurement": "times faster than Nix at the LT50", "setting": "[3]; SF-HL", "result": 27.9, "unit": "times"}, {"measurement": "times faster than Nix at the LT95", "setting": "[3]; SF-HL", "result": 51.5, "unit": "times"}, {"measurement": "times faster than ddH2O treatment at the LT50", "setting": "[3]; SF-HL", "result": 96.7, "unit": "times"}, {"measurement": "times faster than ddH2O treatment at the LT95", "setting": "[3]; SF-HL", "result": 103.0, "unit": "times"}, {"measurement": "times faster than placebo formulation at the LT50", "setting": "[3]; SF-HL", "result": 31.2, "unit": "times"}, {"measurement": "times faster than placebo formulation at the LT95", "setting": "[3]; SF-HL", "result": 82.4, "unit": "times"}]}
